Data as given in ChEMBL document CHEMBL4118222, “Synthesis of C-ring-modified blebbistatin derivatives and evaluation of their myosin II ATPase inhibitory potency” (Bioorg Med Chem Lett, 2018).
Calls of active or inactive are those of the source. No cut-off for these calls is given here.

How the values were obtained:
[1] = Inhibition of rabbit skeletal muscle myosin 2 ATPase in presence of F-actin after 1 hr; design: species or system Oryctolagus cuniculus
Oryctolagus cuniculus = species on record: Oryctolagus cuniculus; assay: Inhibition of rabbit skeletal muscle myosin 2 ATPase in presence of F-actin at 100 uM after 1 hr

Which IC50 [1] does the source give for `Cc1ccc2c(c1)C(=O)[C@]1(O)C[C@H](CO)N(c3ccccc3)C1=N2` (racemic) here?
Its IC50 is 75 µM.

With `Cc1ccc2c(c1)C(=O)[C@]1(O)C[C@@H](CO)N(c3ccccc3)C1=N2` (racemic) as the molecule, how does the inhibition (Oryctolagus cuniculus) read?
Its inhibition is “inactive”.

For `C=CCOCC1CC2(O)C(=O)c3cc(C)ccc3N=C2N1c1ccccc1` (mixture of isomers), which inhibition (Oryctolagus cuniculus) is on record?
The inhibition was “inactive”.

With `Cc1ccc2c(c1)C(=O)[C@]1(O)CCN(c3ccccc3)C1=N2` as the molecule, how does the IC50 [1] read?
Its IC50 is 0.95 µM.
